The results in this text go back to patent US20160362416A1, “ANTIVIRAL COMPOUNDS” (Gilead Sciences, Inc., priority 2012, published 2016).

In experiment [1] the test system is stable HCV 1a RLuc replicon cells (genotype 1a H77 replicon). Description: HCV genotype 1a RLuc replicon reporter assay. It is filed as cell-based. Conditions: Hepatitis C virus; stable genotype 1a H77 RLuc replicon cells, 72 hours. On the technique in general: A replicon is a self-replicating genome or part of one, used to study replication in cells.
The test system of experiment [2] is stable HCV 2a JFH-1 Rluc replicon cells (L31 present in NS5A). As to the kind of experiment: HCV genotype 2a JFH-1 RLuc replicon reporter assay. The class given is cell-based. The note with it: Hepatitis C virus, 72 h, read-out: 2a JFH (nM).
The subject of experiment [3] is NS5A chimeric genotype 2a JFH-1 replicon with genotype 2a J6 strain NS5A gene (M31). Description: HCV genotype 2a J6 NS5A chimeric replicon assay, transient (t). It is filed as cell-based. Conditions: Hepatitis C virus, 72 h, read-out: 2a J6 (t) (nM).
Experiment [4] relates to NS5A chimeric genotype 1b Con1 replicon with genotype 4a ED43 strain NS5A gene. Description: HCV genotype 4a NS5A chimeric replicon assay. The note with it: Hepatitis C virus, 72 h, read-out: 4a (s) (nM). It is filed as cell-based.
The subject of experiment [5] is Q30R in genotype 1a NS5A replicon. As to the kind of experiment: Resistance mutant replicon assay, genotype 1a NS5A Q30R. The class given is cell-based, HCV. Conditions: Hepatitis C virus, read-out: 1a Q30R (nM). As for the experimental part:
Evaluation of cell-based anti-HCV activity: Antiviral potency (EC50) was determined using a Renilla luciferase (RLuc)-based HCV replicon reporter assay. To perform the assay for genotype 1 and 2a JFH-1, stable HCV 1a RLuc replicon cells (harboring a dicistronic genotype 1a H77 replicon that encodes a RLuc reporter), stable HCV lb RLuc replicon cells (harboring a dicistronic genotype 1b Conl replicon that encodes a RLuc reporter), or stable HCV 2a JFH-1 Rluc replicon cells (harboring a dicistronic genotype 2a JFH-1 replicon that encodes a RLuc reporter; with L31 present in NS5A) were dispensed into 384-well plates for EC50 assays. To perform the assay for genotype 2a (with M31 present in NS5A) or 2b, NS5A chimeric genotype 2a JFH-1 replicons that encodes a RLuc-Neo reporter and either genotype 2a J6 strain NS5A gene or genotype 2b MD2b-1 strain NS5A gene (both with M31 present) respectively, were either transiently transfected (t) into Huh-Lunet cells or were established as stably replicating replicon cells (s) is provided. Either cells were dispensed into 384-well plates for EC50 assays. To perform the assay for genotype 3 and 4, NS5A chimeric genotype 1b Conl replicons that encodes a Pi-RLuc reporter and either genotype 3a S52 strain NS5A gene or genotype 4a ED43 strain NS5A gene respectively, were transiently transfected (t) into Huh-Lunet cells, which were subsequently dispensed into 384-well plates. Compounds were dissolved in DMSO at a concentration of 10 mM and diluted in DMSO either manually or using an automated pipeting instrument. Serially 3-fold diluted compounds were either manually mixed with cell culture media and added to the seeded cells or directly added to the cells using an automated instrument. DMSO was used as a negative (solvent; no inhibition) control, and the protease inhibitor ITMN-191 was included at a concentration >100×EC50 as a positive control. 72 hours later, cells were lysed and Renilla luciferase activity quantified as recommended by the manufacturer (Promega-Madison, Wis.). Non-linear regression was performed to calculate EC50 values.
To determine the antiviral potency (EC50) against resistance mutants, resistance mutations, including M28T, Q30R, Q30H, Q30E, L31M, Y93C, Y93H, and Y93N in genotype 1a NS5A, Y93H and L31V/Y93H in genotype 1b NS5A, and Y93H for in genotype 3a NS5A, were introduced individually into either 1a Pi-Rluc or 1b Pi-Rluc replicons by site directed mutagenesis. Replicon RNA of each resistant mutant was transiently transfected into Huh-7-derived cured-51 cells and antiviral potency was determined on these transfected cells as described above.

As for `COC(=O)N[C@H](C(=O)N1[C@@H](C)CC[C@H]1c1nc2ccc3cc4c(cc3c2[nH]1)OCc1cc(-c2cnc([C@@H]3CC[C@H](C)N3C(=O)[C@@H](NC(=O)OC)[C@H]3C[C@@H](C)O[C@@H](C)C3)[nH]2)ccc1-4)C(C)C` [Example AO, Methyl {(2S)-1-[(2S,5S)-2-(9-{2-[(2S,5S)-1-{(2S)-2-[(2R,6S)-2,6-dimethyltetrahydro-2H-pyran-4-yl]-2-[(methoxycarbonyl)amino]acetyl}-5-methylpyrrolidin-2-yl]-1H-imidazol-5-yl}-1,11-dihydroisochromeno[4′,3′:6,7]naphtho[1,2-d]imidazol-2-yl)-5-methylpyrrolidin-1-yl]-3-methyl-1-oxobutan-2-yl}carbamate], the EC50 in experiment [1] turned out to be 0.012 nM; in experiment [2] it was 0.008 nM; in experiment [3], 0.017 nM; in experiment [4] it was 0.018 nM.

As to `COC(=O)N[C@H](C(=O)N1[C@@H](C)CC[C@H]1c1ncc(-c2ccc3c(c2)COc2cc4c(ccc5nc([C@@H]6CC[C@H](C)N6C(=O)[C@@H](NC(=O)OC)C6C[C@@H](C)O[C@H](C)C6)[nH]c54)cc2-3)[nH]1)C1C[C@@H](C)O[C@H](C)C1` (stereo partly drawn) [Example AU, Methyl {(1S)-1-[(2R,6R)-2,6-dimethyltetrahydro-2H-pyran-4-yl]-2-[(2S,5S)-2-(5-{2-[(2S,5S)-1-{(2S)-2-[(2R,6R)-2,6-dimethyltetrahydro-2H-pyran-4-yl]-2-[(methoxycarbonyl)amino]acetyl}-5-methylpyrrolidin-2-yl]-1,11-dihydroisochromeno[4′,3′:6,7]naphtho[1,2-d]imidazol-9-yl}-1H-imidazol-2-yl)-5-methylpyrrolidin-1-yl]-2-oxoethyl}carbamate], the EC50 is 0.029 nM in experiment [1], 0.013 nM in experiment [2], 0.008 nM in experiment [3] and 0.017 nM in experiment [4].

Regarding `COC(=O)N[C@H](C(=O)N1[C@@H](C)CC[C@H]1c1nc2ccc3cc4c(cc3c2[nH]1)OCc1cc(-c2cnc([C@@H]3CC[C@H](C)N3C(=O)[C@@H](NC(=O)OC)C3C[C@@H](C)O[C@H](C)C3)[nH]2)ccc1-4)C(C)C` (some centres unmarked) [Example AS], the EC50 was determined as 0.026 nM in experiment [1], 0.028 nM in experiment [2], 0.015 nM in experiment [3] and 0.024 nM in experiment [4].

For the molecule `CC[C@H](C)[C@H](NC(=O)OC)C(=O)N1[C@@H](C)CC[C@H]1c1ncc(-c2ccc3c(c2)COc2cc4c(ccc5nc([C@@H]6CC[C@H](C)N6C(=O)[C@@H](NC(=O)OC)C6CCOCC6)[nH]c54)cc2-3)[nH]1` [Comp 4, reference compound], the EC50 in experiment [1] was 0.023 nM; in experiment [2], 0.018 nM; in experiment [3], 0.026 nM; in experiment [4], 0.021 nM.

In the case of `CC[C@H](C)[C@H](NC(=O)OC)C(=O)N1[C@@H](C)CC[C@H]1c1nc2ccc3cc4c(cc3c2[nH]1)OCc1cc(-c2cnc([C@@H]3CC[C@H](C)N3C(=O)[C@@H](NC(=O)OC)C3CCOCC3)[nH]2)ccc1-4` [Comp 12, reference compound], the EC50 in experiment [1] was found to be 0.013 nM; in experiment [2] it was 0.009 nM; in experiment [3], 0.032 nM; in experiment [4], 17.7 nM; in experiment [5] it was 1.28 nM.

Regarding `CC[C@H]1CC[C@@H](c2nc3ccc4cc5c(cc4c3[nH]2)OCc2cc(-c3cnc([C@@H]4CC[C@H](C)N4C(=O)[C@@H](NC(=O)OC)C(C)C)[nH]3)ccc2-5)N1C(=O)[C@@H](NC(=O)OC)C1CCOCC1` [Comp 3, reference compound], the EC50 came to 0.021 nM in experiment [1], 0.019 nM in experiment [2], 0.061 nM in experiment [3] and 0.014 nM in experiment [4].

Regarding `COC(=O)N[C@H](C(=O)N1[C@@H](C)CC[C@H]1c1ncc(-c2ccc3c(c2)COc2cc4c(ccc5nc([C@@H]6CC[C@H](C)N6C(=O)[C@@H](NC(=O)OC)C6CC(C)O[C@H](C)C6)[nH]c54)cc2-3)[nH]1)C(C)C` (stereo in doubt) [Example AQ, Methyl {(2S)-1-[(2S,5S)-2-(5-{2-[(2S,5S)-1-{(2S)-2-[(2R,6R)-2,6-dimethyltetrahydro-2H-pyran-4-yl]-2-[(methoxycarbonyl)amino]acetyl}-5-methylpyrrolidin-2-yl]-1,11-dihydroisochromeno[4′,3′:6,7]naphtho[1,2-d]imidazol-9-yl}-1H-imidazol-2-yl)-5-methylpyrrolidin-1-yl]-3-methyl-1-oxobutan-2-yl}carbamate], the EC50 in experiment [1] came out at 0.019 nM; in experiment [2], 0.016 nM; in experiment [3], 0.011 nM; in experiment [4] it was 0.012 nM.

Take `CC[C@H](C)[C@H](NC(=O)OC)C(=O)N1[C@@H](C)CC[C@H]1c1ncc(-c2ccc3c(c2)COc2cc4c(ccc5nc([C@@H]6CC[C@H](C)N6C(=O)[C@@H](NC(=O)OC)C6C[C@@H](C)O[C@H](C)C6)[nH]c54)cc2-3)[nH]1` (stereo partly drawn) [Example AA, Methyl {(2S,3S)-1-[(2S,5S)-2-(5-{2-[(2S,5S)-1-{(2S)-2-[(2R,6R)-2,6-dimethyltetrahydro-2H-pyran-4-yl]-2-[(methoxycarbonyl)amino]acetyl}-5-methylpyrrolidin-2-yl]-1,11-dihydroisochromeno[4′,3′:6,7]naphtho[1,2-d]imidazol-9-yl}-1H-imidazol-2-yl)-5-methylpyrrolidin-1-yl]-3-methyl-1-oxopentan-2-yl}carbamate]: the EC50 in experiment [1] turned out to be 0.016 nM; in experiment [2], 0.011 nM; in experiment [3] it was 0.006 nM; in experiment [4], 0.008 nM.

In the case of `COC[C@H]1C[C@@H](c2ncc(-c3ccc4c(c3)COc3cc5c(ccc6nc([C@@H]7CC[C@H](C)N7C(=O)[C@@H](NC(=O)OC)C7C[C@@H](C)O[C@H](C)C7)[nH]c65)cc3-4)[nH]2)N(C(=O)[C@@H](NC(=O)OC)C2C[C@@H](C)O[C@H](C)C2)C1` (stereo partly drawn) [Example BH, Methyl {(1S)-1-[(2R,6R)-2,6-dimethyltetrahydro-2H-pyran-4-yl]-2-[(2S,5S)-2-(9-{2-[(2S,4S)-1-{(2S)-2-[(2R,6R)-2,6-dimethyltetrahydro-2H-pyran-4-yl]-2-[(methoxycarbonyl)amino]acetyl}-4-(methoxymethyl)pyrrolidin-2-yl]-1H-imidazol-5-yl}-1,11-dihydroisochromeno[4′,3′:6,7]naphtho[1,2-d]imidazol-2-yl)-5-methylpyrrolidin-1-yl]-2-oxoethyl}carbamate], the EC50 was determined as 0.053 nM in experiment [1], 0.013 nM in experiment [2], 0.055 nM in experiment [3] and 0.024 nM in experiment [4].

Take `COC(=O)N[C@H](C(=O)N1[C@@H](C)CC[C@H]1c1ncc(-c2ccc3c(c2)COc2cc4c(ccc5nc([C@@H]6CC[C@H](C)N6C(=O)[C@@H](NC(=O)OC)[C@H]6C[C@@H](C)O[C@@H](C)C6)[nH]c54)cc2-3)[nH]1)C(C)C` [Example AM, Methyl {(2S)-1-[(2S,5S)-2-(5-{2-[(2S,5S)-1-{(2S)-2-[(2R,6S)-2,6-dimethyltetrahydro-2H-pyran-4-yl]-2-[(methoxycarbonyl)amino]acetyl}-5-methylpyrrolidin-2-yl]-1,11-dihydroisochromeno[4′,3′:6,7]naphtho[1,2-d]imidazol-9-yl}-1H-imidazol-2-yl)-5-methylpyrrolidin-1-yl]-3-methyl-1-oxobutan-2-yl}carbamate]: the EC50 amounted to 0.009 nM in experiment [1], 0.005 nM in experiment [2], 0.008 nM in experiment [3] and 0.01 nM in experiment [4].
